Assay results as given in patent US7691382B2, “Antiviral polypeptides comprising tandem repeats of APOE 141-149 and variants thereof” (priority 2003, dated 2010).
Where two headings read alike, the source gives them in different places. Peptide text beside a SMILES is read from it.

Test system: HSV1
Assay type: cell-based, Human herpes simplex virus type 1
Conditions: for efficacy for reducing HSV1 infectivity (in words): Examples 2 and 3
Method: African Green Monkey Kidney (Vero) cells were maintained in Eagle's minimum essential medium with Earle's salt (EMEM) and supplemented with 10% foetal calf serum (heat-inactivated), 4 mM L-glutamine, and 1% (v/v) nonessential amino acids, plus penicillin and streptomycin (100 IU/mg and […], respectively) (maintenance medium referred to as 10% EMEM). The cells were incubated at 37° C. in a humidified atmosphere of air with 5% CO2.
On harvesting, monolayers were washed in phosphate-buffered saline (PBS), and dislodged by incubating with trypsin in PBS for 30 min, before inactivating trypsin by addition of an equal volume of 10% EMEM and centrifuging at 500 g (5 min, 4° C.). Cell pellets were resuspended in 10% EMEM, prior to cell counting and seeding of 24-well plates. For antiviral assays, medium containing only 0.5% FCS was used (referred to as 0.5% EMEM).
Three separate passages of HSV1 virus were prepared by infecting Vero cells, and preparing semi-pure suspensions of virus from tissue culture supernatant and cell lysates, before freezing aliquots of virus at −85° C. Viral infectivity was assessed by carrying out plaque assays on serial dilutions of thawed aliquots (expressed in pfu/ml).
Peptides were obtained in lyophilised form from a commercial supplier (AltaBioscience, University of Birmingham or Advanced Biomedical), and were produced at 5 micromole scale. N-terminals were protected by addition of an acetyl group, and the C-terminals were protected by addition of an amide group.
Small quantities of peptide were weighed in sterile Eppendorf tubes, before addition of sufficient 0.5% EMEM to produce a 1.5 mM stock solution, which was frozen at −20° C. in aliquots.
Vero cells were seeded at 125,000 cells per well in 10% EMEM, and were incubated overnight resulting in confluent monolayers. […] Virus stocks (p3) were thawed, and diluted in 0.5% EMEM such that there were around 100 pfu in 100 μl. Each 24-well plate was inoculated separately. Firstly 100 μl of virus stock was added to the peptide or control medium arranged on a 96-well plate. This was incubated at 37° C. for ten minutes before inoculation. Medium was removed from four wells of a 24-well plate containing confluent Vero, and the 200 μl inoculum added to the appropriate well. Once all wells were treated, the 24-well plate was incubated for a further 60-80 minutes. Finally the peptide-containing inoculum was removed, and 1 ml of 1% EMEM containing 1% carboxymethylcellulose was added to each well. Plates were incubated for a further 22 hours or in some experiments 40 hours, before removal of overlay, and addition of 10% formaldehyde in PBS. After a further one hour incubation, fixative was removed, monolayers washed several times with tap water, and stained with carbol fuchsin solubilised in water. After 30 minutes stain was removed, and plates washed several times with tap water, before being air dried. Plaques were counted using an Olympus IX70 Inverting Microscope, and antiviral effect expressed as a percentage of the control value for each peptide concentration. The IC50 was calculated from plots of inhibitory effect against peptide concentration.

| IC50 [µM] | Structure (SMILES) | other results |
| --- | --- | --- |
| 27.5 | CC(=O)N[C@@H](CC(N)=O)C(=O)N[C@@H](CCCNC(=N)N)C(=O)N[C@@H](CCCCN)C(=O)N[C@@H](CC(N)=O)C(=O)N[C@@H](CCCNC(=N)N)C(=O)N[C@@H](CCCCN)C(=O)N[C@@H](CCCNC(=N)N)C(=O)N[C@@H](CC(N)=O)C(=O)N[C@@H](CC(N)=O)C(=O)N[C@@H](CC(N)=O)C(=O)N[C@@H](CCCNC(=N)N)C(=O)N[C@@H](CCCCN)C(=O)N[C@@H](CC(N)=O)C(=O)N[C@@H](CCCNC(=N)N)C(=O)N[C@@H](CCCCN)C(=O)N[C@@H](CCCNC(=N)N)C(=O)N[C@@H](CC(N)=O)C(=O)N[C@@H](CC(N)=O)C(N)=O [MU 11] (Ac-NRKNRKRNNNRKNRKRNN-NH2) | – |
| 40 | CC(=O)N[C@@H](CC(C)C)C(=O)N[C@@H](CC(C)C)C(=O)N[C@@H](CCCNC(=N)N)C(=O)N[C@@H](CCCCN)C(=O)N[C@@H](CCCNC(=N)N)C(=O)N[C@@H](CC(C)C)C(=O)N[C@@H](CCCCN)C(=O)N[C@@H](CCCNC(=N)N)C(=O)N[C@@H](CC(C)C)C(=O)N[C@@H](CC(C)C)C(=O)N[C@@H](CC(C)C)C(=O)N[C@@H](CCCNC(=N)N)C(=O)N[C@@H](CCCCN)C(=O)N[C@@H](CCCNC(=N)N)C(=O)N[C@@H](CC(C)C)C(=O)N[C@@H](CCCCN)C(=O)N[C@@H](CCCNC(=N)N)C(=O)N[C@@H](CC(C)C)C(N)=O [MU 24] (Ac-LLRKRLKRLLLRKRLKRL-NH2) | – |
| – | CC(=O)N[C@@H](CC(=O)O)C(=O)N[C@@H](Cc1c[nH]c2ccccc12)C(=O)N[C@@H](CC(C)C)C(=O)N[C@@H](CCCCN)C(=O)N[C@@H](C)C(=O)N[C@@H](Cc1ccccc1)C(=O)N[C@@H](Cc1ccc(O)cc1)C(=O)N[C@@H](CC(=O)O)C(=O)N[C@@H](CCCCN)C(=O)N[C@H](C(=O)N[C@@H](C)C(=O)N[C@@H](CCC(=O)O)C(=O)N[C@@H](CCCCN)C(=O)N[C@@H](CC(C)C)C(=O)N[C@@H](CCCCN)C(=O)N[C@@H](CCC(=O)O)C(=O)N[C@@H](C)C(=O)N[C@@H](Cc1ccccc1)C(N)=O)C(C)C [GIN 22] (Ac-DWLKAFYDKVAEKLKEAF-NH2) | IC50 (HSV1, Vero cells, Table 5 (Example 2), read-out: Apparent IC50): 36 µM; IC50 (HSV-1, Vero cells, Table 6 (Example 3), read-out: IC50): 36 µM |
| > 40 | CC(=O)N[C@@H](CC(C)C)C(=O)N[C@@H](CCCNC(=N)N)C(=O)N[C@@H](CCCCN)C(=O)N[C@@H](CC(C)C)C(=O)N[C@@H](CCCNC(=N)N)C(=O)N[C@@H](CCCCN)C(=O)N[C@@H](CCCNC(=N)N)C(=O)N[C@@H](CC(C)C)C(=O)N[C@@H](CC(C)C)C(=O)N[C@@H](CCCNC(=N)N)C(=O)N[C@@H](CC(=O)O)C(=O)N[C@@H](C)C(=O)N[C@@H](CC(=O)O)C(=O)N[C@@H](CC(=O)O)C(=O)N[C@@H](CC(C)C)C(=O)N[C@@H](CCC(N)=O)C(=O)N[C@@H](CCCCN)C(=O)N[C@@H](CCCNC(=N)N)C(=O)N[C@@H](CC(C)C)C(=O)N[C@@H](C)C(N)=O [GIN 12, LRKLRKRLLR DADDLQKRLA] (Ac-LRKLRKRLLRDADDLQKRLA-NH2) | efficacy for reducing HSV1 infectivity (in words): no, or poor, efficacy |
| > 30 | CC(=O)N[C@@H](CCC(N)=O)C(=O)N[C@@H](CCCNC(=N)N)C(=O)N[C@@H](CCCCN)C(=O)N[C@@H](CCC(N)=O)C(=O)N[C@@H](CCCNC(=N)N)C(=O)N[C@@H](CCCCN)C(=O)N[C@@H](CCCNC(=N)N)C(=O)N[C@@H](CCC(N)=O)C(=O)N[C@@H](CCC(N)=O)C(=O)N[C@@H](CCC(N)=O)C(=O)N[C@@H](CCCNC(=N)N)C(=O)N[C@@H](CCCCN)C(=O)N[C@@H](CCC(N)=O)C(=O)N[C@@H](CCCNC(=N)N)C(=O)N[C@@H](CCCCN)C(=O)N[C@@H](CCCNC(=N)N)C(=O)N[C@@H](CCC(N)=O)C(=O)N[C@@H](CCC(N)=O)C(N)=O [MU 9] (Ac-QRKQRKRQQQRKQRKRQQ-NH2) | – |
| 40 | CC(=O)N[C@@H](CC(C)C)C(=O)N[C@@H](CCCNC(=N)N)C(=O)N[C@@H](CCC(N)=O)C(=O)N[C@@H](CC(C)C)C(=O)N[C@@H](CCCNC(=N)N)C(=O)N[C@@H](CCC(N)=O)C(=O)N[C@@H](CCCNC(=N)N)C(=O)N[C@@H](CC(C)C)C(=O)N[C@@H](CC(C)C)C(=O)N[C@@H](CC(C)C)C(=O)N[C@@H](CCCNC(=N)N)C(=O)N[C@@H](CCC(N)=O)C(=O)N[C@@H](CC(C)C)C(=O)N[C@@H](CCCNC(=N)N)C(=O)N[C@@H](CCC(N)=O)C(=O)N[C@@H](CCCNC(=N)N)C(=O)N[C@@H](CC(C)C)C(=O)N[C@@H](CC(C)C)C(N)=O [GIN 44] (Ac-LRQLRQRLLLRQLRQRLL-NH2) | – |
| > 30 | CC(=O)N[C@@H](Cc1ccccc1)C(=O)N[C@@H](CCCNC(=N)N)C(=O)N[C@@H](CCCCN)C(=O)N[C@@H](Cc1ccccc1)C(=O)N[C@@H](CCCNC(=N)N)C(=O)N[C@@H](CCCCN)C(=O)N[C@@H](CCCNC(=N)N)C(=O)N[C@@H](Cc1ccccc1)C(=O)N[C@@H](Cc1ccccc1)C(=O)N[C@@H](Cc1ccccc1)C(=O)N[C@@H](CCCNC(=N)N)C(=O)N[C@@H](CCCCN)C(=O)N[C@@H](Cc1ccccc1)C(=O)N[C@@H](CCCNC(=N)N)C(=O)N[C@@H](CCCCN)C(=O)N[C@@H](CCCNC(=N)N)C(=O)N[C@@H](Cc1ccccc1)C(=O)N[C@@H](Cc1ccccc1)C(N)=O [MU 7] (Ac-FRKFRKRFFFRKFRKRFF-NH2) | – |
| 7.5 | CC(=O)N[C@@H](CCCCN)C(=O)N[C@@H](CCCNC(=N)N)C(=O)N[C@@H](CCCCN)C(=O)N[C@@H](CCCCN)C(=O)N[C@@H](CCCNC(=N)N)C(=O)N[C@@H](CCCCN)C(=O)N[C@@H](CCCNC(=N)N)C(=O)N[C@@H](CCCCN)C(=O)N[C@@H](CCCCN)C(=O)N[C@@H](CCCCN)C(=O)N[C@@H](CCCNC(=N)N)C(=O)N[C@@H](CCCCN)C(=O)N[C@@H](CCCCN)C(=O)N[C@@H](CCCNC(=N)N)C(=O)N[C@@H](CCCCN)C(=O)N[C@@H](CCCNC(=N)N)C(=O)N[C@@H](CCCCN)C(=O)N[C@@H](CCCCN)C(N)=O [MU 18] (Ac-KRKKRKRKKKRKKRKRKK-NH2) | – |
| > 30 | CC(=O)N[C@@H](CC(C)C)C(=O)N[C@@H](CCCNC(=N)N)C(=O)N[C@@H](CCCCN)C(=O)N[C@@H](CC(C)C)C(=O)N1CCC[C@H]1C(=O)N[C@@H](CCCCN)C(=O)N[C@@H](CCCNC(=N)N)C(=O)N[C@@H](CC(C)C)C(=O)N[C@@H](CC(C)C)C(=O)N[C@@H](CC(C)C)C(=O)N[C@@H](CCCNC(=N)N)C(=O)N[C@@H](CCCCN)C(=O)N[C@@H](CC(C)C)C(=O)N1CCC[C@H]1C(=O)N[C@@H](CCCCN)C(=O)N[C@@H](CCCNC(=N)N)C(=O)N[C@@H](CC(C)C)C(=O)N[C@@H](CC(C)C)C(N)=O [MU 44] (Ac-LRKLPKRLLLRKLPKRLL-NH2) | – |
| 4.75 | CC(=O)N[C@@H](Cc1c[nH]c2ccccc12)C(=O)N[C@@H](CCCNC(=N)N)C(=O)N[C@@H](CCCCN)C(=O)N[C@@H](Cc1c[nH]c2ccccc12)C(=O)N[C@@H](CCCNC(=N)N)C(=O)N[C@@H](CCCCN)C(=O)N[C@@H](CCCNC(=N)N)C(=O)N[C@@H](Cc1c[nH]c2ccccc12)C(=O)N[C@@H](Cc1ccccc1)C(=O)N[C@@H](Cc1ccccc1)C(=O)N[C@@H](CCCNC(=N)N)C(=O)N[C@@H](CCCCN)C(=O)N[C@@H](Cc1c[nH]c2ccccc12)C(=O)N[C@@H](CCCNC(=N)N)C(=O)N[C@@H](CCCCN)C(=O)N[C@@H](CCCNC(=N)N)C(=O)N[C@@H](Cc1ccccc1)C(=O)N[C@@H](Cc1ccccc1)C(N)=O [MU 61] (Ac-WRKWRKRWFFRKWRKRFF-NH2) | – |
| > 40 | CC(=O)N[C@@H](CCCNC(=N)N)C(=O)N[C@@H](CC(=O)O)C(=O)N[C@@H](C)C(=O)N[C@@H](CC(=O)O)C(=O)N[C@@H](CC(=O)O)C(=O)N[C@@H](CC(C)C)C(=O)N[C@@H](CCC(N)=O)C(=O)N[C@@H](CCCCN)C(=O)N[C@@H](CCCNC(=N)N)C(=O)N[C@@H](CCCNC(=N)N)C(=O)N[C@@H](CC(=O)O)C(=O)N[C@@H](C)C(=O)N[C@@H](CC(=O)O)C(=O)N[C@@H](CC(=O)O)C(=O)N[C@@H](CC(C)C)C(=O)N[C@@H](CCC(N)=O)C(=O)N[C@@H](CCCCN)C(=O)N[C@@H](CCCNC(=N)N)C(N)=O [GIN 13, RDADDLQKR RDADDLQKR] (Ac-RDADDLQKRRDADDLQKR-NH2) | efficacy for reducing HSV1 infectivity (in words): no, or poor, efficacy |
